Data set [1] in a line: Surface Plasmon Resonance binding to immobilized 3-Lipid II. The settings on record: SPR; for Binding on Lipid II?: Table S3, initial determination at 10 µM; for pKd: immobilized 3-Lipid II. Summed up: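 Binding was measured by Surface Plasmon Resonance on a BIAcore T100 instrument at 25°C. Peptides were injected over the sensor flow-cells at 30 µl/min in running buffer of 10 mM HEPES, 150 mM NaCl, 0.05% surfactant P20, pH 7.4 (±3 mM EDTA) with 10% DMSO. Control flow-cell signals were subtracted, surfaces were regenerated with 50 mM NaOH, and isotherms were fitted with BIAcore software.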

Data set [2] relates to Escherichia coli ATCC 25922. As to the kind of experiment: Antibacterial killing, 96-well turbidimetric (modified vCC) assay. It is filed as cell-based. As to conditions: for active against E.coli (IC100%): Table S3, concentration at which 100% killing occurred, no bacterial regrowth, No = not active; for Bacterial Killing E. coli: concentration resulting in 100% killing after 30 min exposure, modified vCC assay. The gist of the method:
(§1)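 S. aureus ATCC 29213 and E. coli 25922 exposed 30 min to compounds in 10 mM phosphate buffer with 5% DMSO, then 2× Mueller-Hinton medium added; growth followed turbidimetrically for 12 hours. […] MICs determined by broth microdilution per CLSI standards.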

The subject of data set [3] is Staphylococcus aureus ATCC 29213. The description is as above. It is filed as cell-based. The settings on record: for active against S.aureus (IC100%): Table S3, concentration at which 100% killing occurred, no bacterial regrowth, No = not active; for Bacterial Killing S. aureus: concentration resulting in 100% killing after 30 min exposure, modified vCC assay. Summed up: as §1

The nature of data set [4]: Cytotoxicity by MTT assay. The class given is cell-based, human. As to conditions: human, Caco-2 cells; Table S3; No = not cytotoxic; read-out: cytotoxic for Caco II (C50% survival). (Tetrazolium assays rely on reduction of a dye to a coloured formazan, in cell work by metabolically active cells.)
The test system of data set [5] is Caco-2. Description: Cytotoxicity by MTT assay. The class given is cell-based, human.
For data set [6], the system named is Jurkat. Description: Cytotoxicity by MTT assay. It is filed as cell-based, human.
The test system of data set [7] is Streptococcus pneumonia (PRSP) MMX884. Description: Broth microdilution susceptibility testing (CLSI). It is filed as cell-based, Streptococcus pneumoniae. As to the method:
(§2) The antibacterial activity of defensin mimetics against Staphylococcus aureus ATCC 29213 and Escherichia coli 25922 was carried out in a 96-well turbidimetric assay essentially as described previously with the following modifications: bacteria were exposed for 30 min to compounds in 10 mM phosphate buffer containing 5% DMSO prior to addition of 2× Muller-Hinton medium. Bacterial growth was monitored for 12 hours and data were analyzed as described. Determination of MICs was performed by Micromyx, LLC (Kalamazoo, Michigan) according to CLSI standards.
A general note: Broth dilution looks for growth in wells or tubes with falling amounts of substance.

Data set [8] relates to Enterococcus faecalis (VRE) MMX848. As to the kind of experiment: Broth microdilution susceptibility testing (CLSI). The class given is cell-based. On the procedure:
as §2

The subject of data set [9] is Enterococcus faecalis MMX101-ATCC 29212. As to the kind of experiment: Broth microdilution susceptibility testing (CLSI). The class given is cell-based. On the procedure: as §2
Data set [10] relates to Escherichia coli MMX102-ATCC 25922. As to the kind of experiment: Broth microdilution susceptibility testing (CLSI). The class given is cell-based. As to the method:
as §2

The test system of data set [11] is Pseudomonas aeruginosa MMX103-ATCC 27853. Description: Broth microdilution susceptibility testing (CLSI). It is filed as cell-based. As to the method: as §2
Data set [12] has as its system Staphylococcus aureus (MRSA) MMX757. As to the kind of experiment: Broth microdilution susceptibility testing (CLSI). It is filed as cell-based. On the procedure:
as §2

For data set [13], the system named is Staphylococcus aureus MMX100-ATCC 29213. As to the kind of experiment: Broth microdilution susceptibility testing (CLSI). It is filed as cell-based. As to the method: as §2
In data set [14] the test system is Streptococcus pneumoniae MMX1195-ATCC 49619. Description: Broth microdilution susceptibility testing (CLSI). The class given is cell-based. On the procedure: as §2
Data set [15] deals with Staphylococcus aureus ATCC 29213. As to the kind of experiment: Antagonization of defensin antibacterial activity by 3-Lipid II. The class given is cell-based. As to conditions: 50 µM defensin pre-incubated with 3-Lipid II at 1:1 molar ratio. On the procedure: Antagonization of the antibacterial activity of defensins against Staphylococcus aureus ATCC 29213 was carried out in a 96-well turbidimetric assay essentially as described previously. Defensins (50 µM final concentration) were pre-incubated with 3-Lipid II at 1∶1, 1∶2.5 and 1∶5 defensin: Lipid II molar ratios for 30 min at RT. Following incubation, solutions were diluted two-fold in ten steps and bacteria were added. Defensin activity was neutralized by the addition of Mueller Hinton broth. Bacterial growth was monitored for 12 hours and data were analyzed as described.

pIC50, pKd: −log10 of the molar value. Values after ≈ are worked out from the molar mass of the structure shown.

As to `OCC1c2ccccc2-c2ccccc21` [Compound 4121-0081, 9H-fluoren-9-ylmethanol], the “Binding on Lipid II?” value in data set [1] is listed as “No”. The “active against E.coli (IC100%)” value in [2] was “No”. Moreover, the “active against S.aureus (IC100%)” value in data set [3] was “No”. Moreover, the pIC50 in [4] is 3.70.

In the case of `Oc1ccc2ccccc2c1C(c1ccc(Cl)cc1)c1c(O)ccc2ccccc12` [Compound 363003], in data set [1], the “Binding on Lipid II?” value was “Yes” and the negative-log Kd (pKd) (as a rule, the Kd on a negative log10 scale, so that one unit is a factor of ten) is 4.40. Further, in data set [2], the “active against E.coli (IC100%)” value is reported as “No” and the “Bacterial Killing E. coli” value is above 500 µM. In data set [3], the “active against S.aureus (IC100%)” value is 3,9 µM and the “Bacterial Killing S. aureus” value stood at 3.9 µM. In data set [5], this compound gave a pIC50 of 5.46. Besides, in data set [6], the pIC50 is 4.90. Also, the “MIC Streptococcus pneumonia (PRSP) 884-NA” value in data set [7] came out at 16 µg/mL (≈ 38.9 µM). The “MIC Enterococcus faecalis (VRE) 848-NA” value in data set [8] came to 1 µg/mL (≈ 2.43 µM). In data set [9], the “MIC Enterococcus faecalis 101-29212” value is reported as 1 µg/mL (≈ 2.43 µM). Further, the “MIC Escherichia coli 102-25922” value in [10] was above 32 µg/mL. Besides, the “MIC Pseudomonas aeruginosa 103-27853” value in data set [11] is above 32 µg/mL. Further, in data set [12], the “MIC Staphylococcus aureus (MRSA) 757-NA” value was 1 µg/mL (≈ 2.43 µM). Also, the “MIC Staphylococcus aureus 100-29213” value in data set [13] is on record as 1 µg/mL (≈ 2.43 µM). Further, the “MIC Streptococcus pneumoniae 1195-49619” value in [14] was 8 µg/mL (≈ 19.5 µM).

`CC[n+]1c(/C=C/C=C2C=C(/C=C/N(C)c3ccccc3)CC(C)(C)C/2)sc2ccccc21.[I-]` [Compound 5107930, 2-[(1E)-3-[(1E)-5,5-dimethyl-3-[(E)-2-[methyl(phenyl)amino]ethenyl]cyclohex-2-en-1-ylidene]prop-1-en-1-yl]-3-ethyl-1,3-benzothiazol-3-ium iodide]: in data set [1], the “Binding on Lipid II?” value is on record as “Yes” and the negative logarithm of the Kd (pKd) is 5.44. In addition, in data set [2], the “active against E.coli (IC100%)” value came out at 125 µM and the “Bacterial Killing E. coli” value was determined as 125 µM. For the same compound, the “Bacterial Killing S. aureus” value in data set [3] turned out to be 23.4 µM. The pIC50 in data set [5] is 4.55. Besides, in [6], the pIC50 was below 3.65. The “MIC Streptococcus pneumonia (PRSP) 884-NA” value in data set [7] is reported as above 64 µg/mL. Besides, in [8], the “MIC Enterococcus faecalis (VRE) 848-NA” value was 16 µg/mL. In addition, the “MIC Enterococcus faecalis 101-29212” value in data set [9] was found to be 16 µg/mL. Moreover, in data set [10], the “MIC Escherichia coli 102-25922” value is above 16 µg/mL. Further, the “MIC Pseudomonas aeruginosa 103-27853” value in data set [11] is reported as above 16 µg/mL. Further, in [12], the “MIC Staphylococcus aureus (MRSA) 757-NA” value was determined as 16 µg/mL. In addition, the “MIC Staphylococcus aureus 100-29213” value in data set [13] worked out at 16 µg/mL. The “MIC Streptococcus pneumoniae 1195-49619” value in data set [14] is recorded as above 64 µg/mL.

With “HNP-1: chemically synthesized wild-type human alpha-defensin Human Neutrophil peptide-1”, in [15], the “antagonization of bactericidal activity by Lipid II” value is “partly antagonized by one order of magnitude”.
